# From patent US20220009914A1, “Analogs of Nitrofuran Antibiotics to Combat Resistance” (The Trustees of Indiana University, priority 2020, published 2022)
# Read-outs that look alike come from different tables or passages of the source.
# Assays:
# native rhodanese = molecular target: T1, native rhodanese (Bos taurus, UniProt P00586); assay: native rhodanese enzymatic activity counter-screen; assay type: biochemical
# T1 sequence (P00586 1-297): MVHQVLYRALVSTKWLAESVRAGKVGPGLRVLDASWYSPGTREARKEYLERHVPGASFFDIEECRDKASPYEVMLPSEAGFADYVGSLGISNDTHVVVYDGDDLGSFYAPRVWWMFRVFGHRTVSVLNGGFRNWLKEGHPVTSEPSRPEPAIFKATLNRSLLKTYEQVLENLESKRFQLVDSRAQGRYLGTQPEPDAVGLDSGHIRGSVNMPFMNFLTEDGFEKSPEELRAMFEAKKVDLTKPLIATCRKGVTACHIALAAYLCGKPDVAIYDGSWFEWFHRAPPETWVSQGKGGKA
# Experimental: Counter-screening compounds for inhibition of native rhodanese enzymatic activity. Reagent Preparations & Assay Protocol: Reagents were identical to those used in the GroEL/ES-dRho refolding assay described above; however, the assay protocol differed in the sequence of compound addition to the wells. Compounds were pin-transferred after 50 minute incubation for the refolding cycle, but prior to the addition of the thiocyanate enzymatic assay stock. Thus, the refolding reactions were allowed to proceed for 50 min at 37° C. in the absence of test compounds, but the enzymatic activity of the refolded rhodanese reporter enzyme was monitored in the presence of test compounds (inhibitor concentration range during the enzymatic reporter reaction is 100 μM to 46 nM—3-fold dilutions). IC50 values for the rhodanese reporter enzyme were determined as described above. Results presented represent the averages of IC50 values obtained from at least four replicates.
# All compounds were counter-screened for inhibiting the enzymatic activity of the native Rho reporter enzyme as per our previously reported procedure. Results presented represent the averages of IC50 values obtained from at least four replicates.
# native MDH = molecular target: T2, native MDH (Sus scrofa, UniProt P00346); assay: native MDH activity counter-screen in the presence of E. coli NfsB nitroreductase; assay type: biochemical, pig; conditions: with E. coli NfsB nitroreductase; read-out: Native MDH Activity w/NfsB IC50
# T2 sequence (P00346 25-338): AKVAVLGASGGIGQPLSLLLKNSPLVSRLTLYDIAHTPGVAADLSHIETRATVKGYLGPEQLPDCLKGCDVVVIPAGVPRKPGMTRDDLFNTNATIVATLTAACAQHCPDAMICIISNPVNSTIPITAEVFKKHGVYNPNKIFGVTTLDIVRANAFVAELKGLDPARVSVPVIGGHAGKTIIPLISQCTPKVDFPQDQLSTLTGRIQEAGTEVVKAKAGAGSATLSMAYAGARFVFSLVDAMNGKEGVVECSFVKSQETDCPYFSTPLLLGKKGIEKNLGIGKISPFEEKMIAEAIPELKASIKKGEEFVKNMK
# Experimental: Evaluating compounds for inhibition in the GroEL/ES-mediated dMDH refolding assay and native MDH activity counter-screen in the presence of E. coli NfsB nitroreductase. These assays were performed nearly identically to those mentioned above, but with a couple distinct modifications. […] The remainder of the assay was conducted as in our standard protocol where no NfsB nitroreductase was present. […] Results presented represent the averages of IC50 values obtained from at least four replicates in each assay.
# [1] = system: Staphylococcus aureus strain Seattle 1945 (ATCC #25923); assay: bacterial proliferation assay, S. aureus; assay type: cell-based; conditions: read-out: Bacterial Proliferation EC50 S. aureus
# Experimental: (§1) All compounds were evaluated for inhibiting the proliferation of E. coli and each of the ESKAPE bacteria. Results presented represent the averages of EC50 values obtained from at least four replicates. Evaluating compounds for inhibition of bacterial cell proliferation.
# (§2) Growth Media: E. coli were grown with LB medium and all ESKAPE bacteria were grown in Brain Heart Infusion (BHI) medium (Becton, Dickinson and Company), with all liquid cultures supplemented with 25 mg/L Ca^2+ and 12.5 mg/L Mg^2+ to mimic physiological free concentrations of these cations. A 10 mg/mL Ca^2+ stock solution was prepared by dissolving 1.84 g of CaCl2.2H2O in 50 mL of deionized water, and a 10 mg/mL Mg^2+ stock solution was prepared by dissolving 4.18 g of MgCl2.6H2O in 50 mL deionized water—filter sterilized using 0.2 μm cellulose-acetate filters. 2.5 mL of the sterile 10 mg/mL Ca^2+ stock and 1.25 mL of the sterile 10 mg/mL Mg^2+ stock solutions were added per 1 L of autoclaved LB or BHI media to obtain 25 mg/L Ca^2+ and 12.5 mg/L Mg^2+ ions, respectively.
# (§3) General Assay Protocol: Stock bacterial cultures were streaked onto LB or BHI agar plates and grown overnight at 37° C. Fresh aliquots of cation supplemented media were inoculated with single bacterial colonies and the cultures were grown overnight at 37° C. with shaking (240 rpm). The following morning, cultures were diluted 10-fold into fresh media and grown at 37° C. until bacteria had reached mid-log phase growth (OD600˜0.4-0.6). The cultures were then diluted into fresh media to achieve final OD600 readings of 0.017. Aliquots of these diluted cultures (30 μL) were added to clear, flat-bottom 384-well polystyrene plates that were previously stamped with 0.5 μL of test compounds in 20 μL of media (yielding initial OD600=0.01 bacterial cultures). All compounds were tested in dose-response with concentration ranges during the proliferation assays from 100 μM to 46 nM (3-fold dilution series). A second set of baseline control plates were prepared analogously, but without any bacteria added, to correct for possible compound absorbance and/or precipitation. […] Plates were then read at 600 nm using a Molecular Devices SpectraMax Plus384 microplate reader. […] Results presented represent the averages of EC50 values obtained from at least four replicates.
# (§4) Evaluating analogs for inhibiting the growth of E. coli and the ESKAPE bacteria. Analogs were initially tested for antibacterial efficacy against representative strains of antibiotic-sensitive E. coli and the ESKAPE bacteria. To determine compound efficacy, bacterial proliferation assays were carried out in liquid media culture supplemented with physiological concentrations of free calcium and magnesium cations. For these assays, bacterial cultures (OD600=0.01) were exposed to test compounds in 8-point, 3-fold dilution series (100 μM to 46 nM concentration range), in 384-well plates. After addition of compounds to cultures, the plates were sealed with Breathe-Easy gas permeable membranes and allowed to grow to mid-log phase (OD600˜0.4-0.6), whereupon final OD600 readings were taken to assess for bacterial growth and inhibition.
# [2] = system: Acinetobacter baumannii strain 2208 (ATCC 19606); assay: bacterial proliferation assay, A. baumannii; assay type: cell-based; conditions: ATCC19606, read-out: Bacterial Proliferation EC50 A. baumannii
# Experimental: as §1, §2, §3, §4
# [3] = system: Pseudomonas aeruginosa strain NCTC 10332 (ATCC #10145); assay: bacterial proliferation assay, P. aeruginosa; assay type: cell-based; conditions: read-out: Bacterial Proliferation EC50 P. aeruginosa
# Experimental: as §1, §2, §3, §4
# [4] = system: NEB 5-alpha Escherichia coli; assay: bacterial proliferation assay, E. coli; assay type: cell-based; conditions: for EC50: read-out: Bacterial Proliferation EC50 E. coli
# Experimental: as §1, §2, §3, §4
# [5] = compounds added after refolding, read-out: Native Rho Activity IC50
# [6] = Staphylococcus aureus, ATCC25923
SMILES,IC50 (native rhodanese; [5]),IC50 (native MDH),"EC50 [1, 6]",EC50 [2],EC50 [3],EC50 ([4]; Escherichia coli),inhibition of E. coli proliferation in words [4],EC50 [4],IC50 (native rhodanese),EC50 [1]
"O=C(N/N=C/c1ccc([N+](=O)[O-])o1)c1cccc(Oc2ccccc2)c1 [Compound 24, N′-((5-nitrofuran-2-yl)methylene)-3-phenoxybenzohydrazide]",65 µM,> 56 µM,3.5 µM,> 100 µM,> 100 µM,> 100 µM,–,–,–,–
"COc1ccc(C(=O)NN)cc1 [Compound 42, reference compound]",> 100 µM,> 56 µM,> 100 µM,> 100 µM,> 100 µM,> 100 µM,–,–,–,–
"O=C(N/N=C/c1ccc([N+](=O)[O-])o1)c1ccc(Cl)s1 [Compound 17, 5-chloro-N′-((5-nitrofuran-2-yl)methylene)thiophene-2-carbohydrazide]",56 µM,–,3 µM,72 µM,> 100 µM,–,potent inhibitors,0.45 µM,–,–
"COc1ccc(C(=O)N/N=C/c2ccc(O)c3ccccc23)cc1 [Compound 29, N′-((4-hydroxynaphthalen-1-yl)methylene)-4-methoxybenzohydrazide]",66 µM,> 56 µM,> 100 µM,> 100 µM,> 100 µM,> 100 µM,–,–,–,–
"O=C(N/N=C/c1ccc(O)c2ncccc12)c1ccccc1Oc1ccccc1 [Compound 10, N′-((8-hydroxyquinolin-5-yl)methylene)-2-phenoxybenzohydrazide]",89 µM,> 56 µM,> 100 µM,> 100 µM,81 µM,> 100 µM,–,–,–,–
"O=C(N/N=C/c1ccc([N+](=O)[O-])o1)c1cccs1 [Compound 16, N′-((5-nitrofuran-2-yl)methylene)thiophene-2-carbohydrazide]",> 100 µM,–,7.1 µM,82 µM,> 100 µM,–,–,0.42 µM,–,–
"O=C(N/N=C/c1ccc([N+](=O)[O-])o1)c1cccc2ccccc12 [Compound 22, N′-((5-nitrofuran-2-yl)methylene)-1-naphthohydrazide]",45 µM,> 56 µM,6 µM,> 100 µM,> 100 µM,41 µM,–,–,–,–
"O=C(N/N=C/c1ccc([N+](=O)[O-])o1)c1ccccc1Oc1ccccc1 [Compound 23, N′-((5-nitrofuran-2-yl)methylene)-2-phenoxybenzohydrazide]",43 µM,> 56 µM,5.2 µM,> 100 µM,> 100 µM,> 100 µM,–,–,–,–
"O=C(N/N=C/c1ccc([N+](=O)[O-])o1)c1ccccc1 [Compound 18, N′-((5-nitrofuran-2-yl)methylene)benzohydrazide]",84 µM,–,10 µM,> 100 µM,> 100 µM,2.1 µM,–,–,–,–
"O=C(N/N=C/c1ccc([N+](=O)[O-])o1)c1ccncc1 [Compound 19, N′-((5-nitrofuran-2-yl)methylene)isonicotinohydrazide]",38 µM,–,9.5 µM,54 µM,> 100 µM,2.4 µM,–,–,–,–
"O=C(N/N=C/c1ccc(O)c2ncccc12)c1ccc(Cl)s1 [Compound 4, 5-chloro-N′-((8-hydroxyquinolin-5-yl)methylene)thiophene-2-carbohydrazide]",14 µM,> 56 µM,84 µM,> 100 µM,> 100 µM,> 100 µM,–,–,–,–
"O=C1CN(/N=C/c2ccc([N+](=O)[O-])o2)C(=O)N1 [Nitrofurantoin, reference compound]",–,–,27 µM,> 100 µM,> 100 µM,0.69 µM,potent inhibitors,–,> 100 µM,–
"O=C(N/N=C/c1ccc(O)c2ncccc12)c1ccc(NS(=O)(=O)c2cccs2)cc1 [Compound 13, N-(4-(2-((8-hydroxyquinolin-5-yl)methylene)hydrazine-1-carbonyl)phenyl)thiophene-2-sulfonamide]",> 100 µM,> 56 µM,> 100 µM,> 100 µM,> 100 µM,> 100 µM,–,–,–,–
"CCN(CC)S(=O)(=O)c1cccc(C(=O)N/N=C/c2ccc(O)c3ncccc23)c1 [Compound 12, N,N-diethyl-3-(2-((8-hydroxyquinolin-5-yl)methylene)hydrazine-1-carbonyl)benzenesulfonamide]",81 µM,> 56 µM,> 100 µM,> 100 µM,85 µM,99 µM,–,–,–,–
"COc1ccc(C(=O)N/N=C/c2ccc(O)c3ncccc23)cc1 [Compound 1, N′-((8-hydroxyquinolin-5-yl)methylene)-4-methoxybenzohydrazide]",98 µM,> 56 µM,–,> 100 µM,–,> 100 µM,–,–,–,87 µM
"CN(C)c1ccc(C(=O)N/N=C/c2ccc([N+](=O)[O-])o2)cc1 [Compound 21, 4-(dimethylamino)-N′-((5-nitrofuran-2-yl)methylene)benzohydrazide]",> 100 µM,–,34 µM,> 100 µM,> 100 µM,10 µM,–,–,–,–
"COc1ccc(C(=O)N/N=C/c2ccc([N+](=O)[O-])o2)cc1 [Compound 20, 4-methoxy-N′-((5-nitrofuran-2-yl)methylene)benzohydrazide]",> 100 µM,–,8.1 µM,> 100 µM,> 100 µM,1.9 µM,–,–,–,–
